Laboratory results reported in publication PMC10707934, “Design and Synthesis of Novel α-Methylchalcone Derivatives, Anti-Cervical Cancer Activity, and Reversal of Drug Resistance in HeLa/DDP Cells” (Molecules, 2023).

Legend:
Type in all cases: cell-based, human
[1] = test system: SiHa cells; assay: MTT anti-proliferation assay, SiHa; settings: 48 h, mean ± SD
Protocol: (§1) All cell types, at a volume of 200 µL per well, were inoculated in 96-well plates at a density of 2.5 × 10^4 cells / mL and cultured for 24 h in an incubator with 5% CO2 at 37 °C. The old culture medium was replaced with 200 µL of fresh medium per well containing positive compounds, at concentrations of 1, 6.25, 12.5, 25, 50, and 100 μM. After 48 h of culture, 20 µL per well of 5 mg·mL^−1 MTT solution was added. After 4 h of culture, the old solution was discarded, and 150 µL per well of DMSO solution was added. Using an enzyme labeler (Thermo Fisher Scientific, Multiskan GO, Waltham, MA, USA), the plates were shaken for 10 min, OD values were determined at 490 nm, and the inhibition rate was calculated. Non-linear regression fitting of the cell growth rate was carried out using SPSS 23.0, and the IC50 of the compound was calculated. The inhibition rate was calculated using the formula: [(ODempty − ODtest)/(ODempty − ODnegative group)] × 100%, (ODempty blank group absorbance, ODtest absorbance of administration group, ODnegative group without cell culture medium). Each group contained six compound holes, and the experimental results averaged three trials. Complete medium containing only cells was used as the blank control; a complete medium without cells as was used as the negative control; and cisplatin, paclitaxel, and adriamycin were used as the positive controls. The concentration gradient was the same as that used for compounds 3a–3p.

[2] = test system: C33A cells; assay: MTT anti-proliferation assay, C33A; settings: 48 h, mean ± SD
Protocol: as §1

[3] = test system: HeLa/DDP cells; assay: Annexin V-FITC/PI pro-apoptosis assay, HeLa/DDP; settings: 24 h
Protocol: Cell fluid (2 mL per well) at a concentration of 1.5 × 10^5 cells / mL was added to a 6-well plate and cultured in a cell incubator with 5% CO2 at 37 °C for 24 h. The old solution was discarded; 2 mL of the medium containing compound 3k was added to each well at a concentration gradient of 2.5, 5, and 10 μM; and the experiment was repeated three times at each concentration. Complete medium containing only cells was used as a blank control group, and 20 μM of cisplatin injection and chalcone was used as a positive control. Cells were harvested following a 24 h incubation period, adhering to the guidelines provided with the BD kit (BD Biosciences Pharmingen, 556547, 10975 Torreyana Road, San Diego, CA, USA). Subsequently, the cells were subjected to staining in a light-restricted environment at ambient temperature for a duration of 15 min, followed by filtration and analysis via flow cytometry.
The pro-apoptotic experiments of compound 3k, cisplatin, and chalcone on HeLa/DDP were performed in the same way as in Section 3.3.3. Western Blotting Analysis in the same way as in Section 3.3.4.

[4] = test system: HeLa cells; assay: Cell cycle experiment (PI flow cytometry), HeLa; settings: 24 h
Protocol: (§2) A 2 mL volume of cell fluid per well at a concentration of 1 × 10^6 cells / mL was inoculated into a 6-well plate and cultured for 24 h. After removing the old solution, 2 mL of the cell culture medium containing 3k was added to each well, and each well was exposed for 24 h to a concentration gradient of 2.5, 5, and 10 μM. The experiment was repeated three times for each concentration. Complete culture medium containing only cells was used as the blank control group, and 20 μM cisplatin and chalcone injection were used as the positive control group. After 24 h of treatment, the cells were collected in a 15 mL centrifuge tube and fixed with 75% ethanol at 4 °C for 24 h. A 400 µL volume of PI/RNase staining buffer (BD Biosciences Pharmingen, 550825, 10975 Torreyana Road, San Diego, CA, USA) was uniformly dispersed and subjected to staining for 15 min at room temperature […]. The sample was subsequently filtered and analyzed using up-flow cytometry (BD, LSRFortessa, New York, NY, USA).

[5] = test system: HeLa/DDP cells; assay: Cell cycle experiment (PI flow cytometry), HeLa/DDP; settings: 24 h; for blocking rate at the G2/M phase: control 4.05%
Protocol: as §2
The experimental methods for the effect of compound 3k, cisplatin, and chalcone on the HeLa/DDP cell cycle were the same as in Section 3.3.5.

[6] = test system: HeLa cells; assay: Transwell Matrigel invasion assay, HeLa
Protocol: The Transwell ([…], Corning Incorporated, New York, NY, USA) was precoated using 50 μL Matrigel for 5 h at 37 °C to achieve solidification. HeLa cells was collected and suspended in a serum-free medium containing varying concentrations (0, 2.5, 5, and 10 μM) of compound 3k, along with 20 μM cisplatin and chalcone. These cell suspensions were then added to the upper wells of a permeabilization chamber at a density of 5 × 10^5 cells/mL. In the lower wells, 600 μL of DMEM containing 10% FBS was added, which had been prepared using 50 μL of Matrigel (diluted 1:8 with serum-free medium from Corning/BD Biosciences). After 24 h of incubation at 37 °C, the invasion cells were fixed using 4% paraformaldehyde and stained using 0.1% crystal violet for 30 min. Then, the chambers were washed using PBS and left to dry. Images were photographed using an inverted fluorescence microscope (Leica Instruments Co., Ltd., Microsystems CMS GmbH, Weizler, Hesse, Germany) and counted using Image J software (V1.8.0.112) for three independent fields randomly.

Row | Compound | IC50 [1] [µM] | IC50 [2] [µM] | pro-apoptotic rate ([3]; 20 μM) [%] | percentage of cells in the G0/G1 phase ([4]; 20 μM, control 52.1%) [%] | percentage of cells in G0/G1 phase ([5]; 20 μM, control 57.03%) [%] | number of cells undergoing invasion ([6]; 24 h, 20 μM) | IC50 ([1]; Homo sapiens) [µM] | IC50 ([2]; Homo sapiens, C-33-A) [µM] | pro-apoptotic rate ([3]; 2.5 μM) [%] | pro-apoptotic rate ([3]; 5 μM) [%] | pro-apoptotic rate ([3]; 10 μM) [%] | blocking rate at the G2/M phase ([4]; 2.5 μM) [%] | blocking rate at the G2/M phase ([4]; 5 μM) [%] | blocking rate at the G2/M phase ([4]; 10 μM) [%] | blocking rate at the G2/M phase ([5]; 2.5 μM) [%] | blocking rate at the G2/M phase ([5]; 5 μM) [%] | blocking rate at the G2/M phase ([5]; 10 μM) [%] | number of cells undergoing invasion compared to the control group ([6]; 24 h, 2.5, 5, and 10 μM)
1 | N.N.[Cl][Pt][Cl] [Cisplatin, cisplatin, reference compound] | 20.7 ± 1.85 | 6.05 ± 1.15 | 15.0 | 73.93 | 65.07 | 237 | – | – | – | – | – | – | – | – | – | – | – | –
2 | COc1ccc(/C=C(\C)C(=O)c2ccc(Cl)c(Cl)c2)cc1OC [Compound 3k, (E)-1-(3,4-Dichlorophenyl)-3-(3,4-dimethoxyphenyl)-2-methylprop-2-en-1-one] | – | – | – | – | – | – | 14.5 ± 0.98 | 12.1 ± 2.44 | 36.7 | 46.3 | 63.7 | 14.04 | 22.84 | 40.18 | 14.71 | 22.85 | 52.72 | significant decrease in the number of cells undergoing invasion
